In article PMC6915683, “Characterization of Maltase and Sucrase Inhibitory Constituents from Rhodiola crenulata” (Foods, 2019):
“Also recorded” adds a separate entry of the source. Read-outs that look alike come from different tables or passages of the source.

Experiments:
maltase [1] = molecular target: T1, maltase (Saccharomyces cerevisiae, UniProt P53341); assay: Maltase inhibitory activity assay (maltose substrate, glucose oxidase method); format: biochemical; conditions: for inhibition at 10 µM: read-out: maltase inhibition
T1 construct: purchased Sigma Chemical Co. (St. Louis, MO, USA)
T1 sequence (P53341 whole entry): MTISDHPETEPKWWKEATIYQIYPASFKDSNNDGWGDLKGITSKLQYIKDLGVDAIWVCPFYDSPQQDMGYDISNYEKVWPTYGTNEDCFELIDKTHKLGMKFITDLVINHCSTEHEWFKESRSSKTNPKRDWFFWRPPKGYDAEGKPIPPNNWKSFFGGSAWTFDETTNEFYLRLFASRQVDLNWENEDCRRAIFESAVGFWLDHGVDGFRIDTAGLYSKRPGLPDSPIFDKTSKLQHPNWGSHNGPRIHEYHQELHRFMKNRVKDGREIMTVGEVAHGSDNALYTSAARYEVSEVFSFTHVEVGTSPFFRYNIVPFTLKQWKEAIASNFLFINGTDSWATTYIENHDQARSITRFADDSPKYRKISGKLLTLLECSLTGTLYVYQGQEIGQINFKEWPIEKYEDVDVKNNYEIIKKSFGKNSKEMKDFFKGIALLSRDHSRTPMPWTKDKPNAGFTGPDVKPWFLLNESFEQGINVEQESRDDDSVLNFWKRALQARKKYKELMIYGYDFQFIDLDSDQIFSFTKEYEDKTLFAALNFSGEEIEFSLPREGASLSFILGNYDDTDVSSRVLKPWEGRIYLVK
Experimental: (§1) Maltase activity was characterized using the methods outlined by Adisakwattana et al. with slight modifications. Maltose and maltase derived from Saccharomyces cerevisiae (S. cerevisiae) were obtained from Sigma Chemical Co. (St. Louis, MO, USA). A reaction mixture was formulated from 30 μL of maltose (86.3 mM) with 20 μL of maltase (0.33 units/mL) and 50 μL of phosphate buffer (100 mM, pH 7.0). The mixture was incubated at 37 °C for 10 min and then at 100 °C for a further 10 min to stop the reaction. The glucose concentrations released by the reaction mixture were determined via the glucose oxidase method (glucose assay kit, Sigma Chemical Co., St. Louis, MO, USA) using a VersaMax microplate reader (Molecular Devices Corporation, Sunnyvale, CA, USA) at an absorbance wavelength of 540 nm.
All of the samples were assessed in terms of maltase inhibitory activity under a range of concentrations (0–30 μM). Maltase inhibitory activity was evaluated by dissolving the samples directly in phosphate buffer solution (100 mM, pH 7.0). Note that each sample was assayed in triplicate. Inhibitory activity was estimated in terms of IC50 values based on percent inhibition, as follows:percent inhibition (%) = [(Awithout sample − Awith sample)] × 100%/Awithout sample(1)

sucrase [2] = assay: Sucrase inhibitory activity assay (sucrose substrate, glucose oxidase method); format: biochemical, Leuconostoc mesenteroides; conditions: for IC50: L. mesenteroides sucrase, sucrose substrate, pH 7.0, 37 °C, mean ± SD; for sucrase inhibition: at a concentration of 20 µM
Experimental: Estimates of sucrase activity were obtained using the method outlined by […] et al. with slight modifications. Sucrose and sucrase derived from Leuconostoc mesenteroides were obtained from Sigma Chemical Co. (St. Louis, MO, USA). […] The mixtures were incubated at 37 °C for 60 min and then at 100 °C for a further 10 min to stop the reaction. The glucose concentrations released from the reaction mixtures were estimated via the glucose oxidase method (glucose assay kit, Sigma Chemical Co., St. Louis, MO, USA) using a VersaMax microplate reader (Molecular Devices Corporation, Sunnyvale, CA, USA) at an absorbance wavelength of 540 nm. […] All samples were assessed in terms of sucrase inhibitory activity under a range of concentrations (0-50 μM).

maltase [3] = molecular target: T1, maltase; assay: Maltase inhibition kinetics (Lineweaver–Burk and Dixon plots); format: biochemical; conditions: for Ki’ maltase (uncompetitive inhibition constant): binding to maltase–maltose complex; for mode of inhibition toward maltase: Lineweaver–Burk / Dixon plots
Experimental: as §1
Kinetics assays were conducted using substrates of various concentrations with and without inhibitors. Maltose was used as a substrate for maltase, where the initial velocity was expressed as the rate of absorbance at 540 nm per min. Sucrose was used as a substrate for sucrase, where the initial velocity was expressed as the rate of absorbance at 540 nm per 18 min. Dixon plot analysis was used to determine the competitive inhibition constant (Ki) and uncompetitive inhibition constant (Ki’). Ki was used as the equilibrium constant for the inhibition of binding to maltase and sucrase, whereas Ki’ was used as the equilibrium constant for the inhibition of binding to maltase–maltose and sucrase–sucrose complexes. The Ki and Ki’ values of the maltase inhibitors were derived from Dixon plots in accordance with the methods described by Cornish-Bowden.

sucrase [4] = assay: Sucrase inhibition kinetics (Lineweaver–Burk and Dixon plots); format: biochemical, Leuconostoc mesenteroides; conditions: for Ki / Ki’ sucrase (uncompetitive inhibition constant): Dixon plot; for Ki / mode of inhibition toward sucrase: sucrose substrate; for Ki: binding to sucrase, read-out: Ki sucrase (competitive inhibition constant); for Ki’ sucrase (uncompetitive inhibition constant): binding to sucrase–sucrose complex; for mode of inhibition toward sucrase: Lineweaver–Burk / Dixon plots
Experimental: Estimates of sucrase activity were obtained using the method outlined by […] et al. with slight modifications. Sucrose and sucrase derived from Leuconostoc mesenteroides were obtained from Sigma Chemical Co. (St. Louis, MO, USA). […] The mixtures were incubated at 37 °C for 60 min and then at 100 °C for a further 10 min to stop the reaction. The glucose concentrations released from the reaction mixtures were estimated via the glucose oxidase method (glucose assay kit, Sigma Chemical Co., St. Louis, MO, USA) using a VersaMax microplate reader (Molecular Devices Corporation, Sunnyvale, CA, USA) at an absorbance wavelength of 540 nm. […] Kinetics assays were conducted using substrates of various concentrations with and without inhibitors. Maltose was used as a substrate for maltase, where the initial velocity was expressed as the rate of absorbance at 540 nm per min. Sucrose was used as a substrate for sucrase, where the initial velocity was expressed as the rate of absorbance at 540 nm per 18 min. Dixon plot analysis was used to determine the competitive inhibition constant (Ki) and uncompetitive inhibition constant (Ki'). Ki was used as the equilibrium constant for the inhibition of binding to maltase and sucrase, whereas Ki' was used as the equilibrium constant for the inhibition of binding to maltase-maltose and sucrase-sucrose complexes.

α-glucosidase = tested on: α-glucosidase; parameters: method as in doi:10.1016/j.foodres.2014.01.029; conditions: cited from earlier work; for Ki / Ki’ α-glucosidase: previous results
sucrase [5] = tested on: sucrase; parameters: method as in PMID 15895684; conditions: sucrose substrate, cited from earlier work
maltase [6] = tested on: maltase; parameters: method as in PMID 19772492; conditions: kinetic analysis; cited from earlier work
sucrase [7] = tested on: sucrase; parameters: method as in PMID 19772492; conditions: cited from earlier work
rat maltase [8] = molecular target: rat maltase; parameters: method as in PMID 28914528; conditions: cited from earlier work
rat sucrase = molecular target: rat sucrase; parameters: method as in PMID 28914528; conditions: cited from earlier work
maltase [9] = tested on: maltase; parameters: method as in PMID 32218677; conditions: maltose substrate, cited from earlier work
maltase [10] = molecular target: maltase; parameters: method as in PMID 15826043; conditions: isolated from Siraitia grosvenori; read-out: IC50 maltase inhibitory activity; cited from earlier work
sucrase [11] = tested on: sucrase; parameters: method as in PMID 21765605; conditions: kinetics analysis; cited from earlier work
[12] = parameters: method as in PMID 18756586; conditions: daily consumption for three years, compared to control group not consuming acarbose; cited from earlier work
rat maltase [13] = molecular target: rat maltase; parameters: method as in doi:10.1016/j.foodchem.2010.03.088; conditions: read-out: IC50 against rat maltase; cited from earlier work
rat sucrose = tested on: rat sucrose; parameters: method as in doi:10.1016/j.foodchem.2010.03.088; conditions: read-out: IC50 against rat sucrose; cited from earlier work
sucrose in rats = tested on: sucrose in rats; parameters: method as in PMID 20629879; conditions: read-out: IC50 against sucrose in rats; cited from earlier work
[14] = S. cerevisiae maltase, maltose substrate, pH 7.0, 37 °C, mean ± SD, triplicate, read-out: IC50 Maltase

## O=C(O[C@@H]1Cc2c(O)cc(O)cc2O[C@@H]1c1ccc(O)c(O)c1)c1cc(O)c(O)c(O)c1 [ECG, epicatechin gallate]
Maltase [1]
  IC50: 3.64 ± 2.99 µM
  inhibition at 10 µM: 87.7%
Sucrase [2]
  IC50: 18.3 ± 3.99 µM
  sucrase inhibition: 56.1%
Maltase [3]
  Ki: 3.14 ± 0.04 µM
Maltase [3]; Dixon plot
  Ki’ maltase (uncompetitive inhibition constant): 6.38 ± 0.04 µM
Maltase [3]; maltose substrate
  mode of inhibition toward maltase: mixed-type inhibition; also recorded: mixed-competitive inhibitors
Sucrase [4]
  Ki: 8.58 ± 0.08 µM
  Ki’ sucrase (uncompetitive inhibition constant): 15.74 ± 0.32 µM
  mode of inhibition toward sucrase: mixed-type inhibition; also recorded: mixed-competitive inhibitors
α-glucosidase
  mode of inhibition of α-glucosidase: mixed-competitive inhibitors
  Ki: 0.21 ± 0.04 µM
  Ki’ α-glucosidase: 2.34 ± 0.06 µM

## Oc1cc(O)c2c(c1)O[C@H](c1ccc(O)c(O)c1)[C@H](O)C2 [EC, epicatechin]
Maltase [1]; [14]
  IC50: 6.25 ± 1.84 µM
Maltase [1]
  inhibition at 10 µM: 66.3%
Sucrase [2]
  IC50: 18.9 ± 3.66 µM
  sucrase inhibition: 51.4%
Maltase [3]; Dixon plot
  Ki’ maltase (uncompetitive inhibition constant): 18.88 ± 0.22 µM
Maltase [3]; maltose substrate
  mode of inhibition toward maltase: mixed-type inhibition; also recorded: mixed-competitive inhibitors
Maltase [3]; read-out: Ki maltase (competitive inhibition constant)
  Ki: 7.02 ± 0.26 µM
Sucrase [4]
  Ki: 13.7 ± 0.15 µM
  Ki’ sucrase (uncompetitive inhibition constant): 21.36 ± 0.30 µM
  mode of inhibition toward sucrase: mixed-type inhibition; also recorded: mixed-competitive inhibitors

## N[C@H]1C=C(CO)[C@@H](O)[C@H](O)[C@H]1O [valienamine]
Sucrase [5]; Lineweaver–Burk plot
  mode of inhibition of sucrase: competitive inhibitor
Sucrase [5]; read-out: Ki sucrase calculated from a Dixon plot
  Ki: 0.77 µM

## COc1ccc(/C=C/C(=O)O)cc1O [isoferulic acid]
Maltase [6]
  mode of inhibition of maltase: mixed-inhibition manner
Sucrase [7]
  mode of inhibition of sucrase: mixed-type manner

## COc1cc(/C=C/C(=O)O)ccc1O [ferulic acid]
Maltase [6]
  mode of inhibition of maltase: mixed-inhibition manner
Sucrase [7]
  mode of inhibition of sucrase: mixed-type manner

## O=C(O[C@@H]1Cc2c(O)cc(O)cc2O[C@@H]1c1cc(O)c(O)c(O)c1)c1cc(O)c(O)c(O)c1 [epigallocatechin gallate]
Rat maltase [8]
  IC50: 14 ± 2 µM
Rat sucrase
  IC50: 950 ± 86 µM
Maltase [9]; Lineweaver–Burk plot
  mode of inhibition of maltase: competitive inhibitor
Maltase [9]; read-out: Ki maltase calculated from a Dixon plot
  Ki: 5.93 ± 0.26 µM

## O=C(OC1Cc2c(O)cc(O)c(C3c4c(O)cc(O)cc4OC(c4ccc(O)c(O)c4)C3O)c2OC1c1ccc(O)c(O)c1)c1cc(O)c(O)c(O)c1 (stereo not drawn) [B2-3’-O-gallate, epicatechin-(4β,8)-epicatechingallate]
Maltase [1]; [14]
  IC50: 1.73 ± 1.37 µM
Maltase [1]
  inhibition at 10 µM: 90.7%
Sucrase [2]
  IC50: 6.91 ± 3.41 µM
  sucrase inhibition: 84.6%
Maltase [3]; Dixon plot, maltose substrate, binding to maltase, read-out: Ki maltase (competitive inhibition constant)
  Ki: 1.99 ± 0.02 µM
Maltase [3]; Dixon plot
  Ki’ maltase (uncompetitive inhibition constant): 3.73 ± 0.08 µM
Maltase [3]; maltose substrate
  mode of inhibition toward maltase: mixed-type inhibition; also recorded: mixed-competitive inhibitors
Sucrase [4]
  Ki: 6.05 ± 0.04 µM
  mode of inhibition toward sucrase: mixed-type inhibition; also recorded: mixed-competitive inhibitors
α-glucosidase
  mode of inhibition of α-glucosidase: mixed-competitive inhibitors
  Ki: 0.3 ± 0.03 µM
  Ki’ α-glucosidase: 1.42 ± 0.01 µM

## C[C@H](CC[C@@H](O[C@@H]1O[C@H](CO[C@@H]2O[C@H](CO)[C@@H](O)[C@H](O)[C@H]2O)[C@@H](O)[C@H](O)[C@H]1O)C(C)(C)O)[C@H]1CC[C@@]2(C)[C@@H]3CC=C4[C@@H](CC[C@H](O[C@@H]5O[C@H](CO)[C@@H](O)[C@H](O)[C@H]5O)C4(C)C)[C@]3(C)[C@H](O)C[C@]12C [mogroside III]
Maltase [10]
  IC50: 1600 µM

## C[C@@H]1O[C@@H](OC[C@H]2O[C@@H](Oc3cc4c(O)cc(O)cc4[o+]c3-c3ccc(O)c(O)c3)[C@H](O)[C@@H](O)[C@@H]2O)[C@H](O)[C@H](O)[C@H]1O [cyanidin-3-rutinoside]
Sucrase [11]
  mode of inhibition of sucrase: mixed-type manner

## C[C@H](CC[C@@H](O[C@@H]1O[C@H](CO[C@@H]2O[C@H](CO)[C@@H](O)[C@H](O)[C@H]2O)[C@@H](O)[C@H](O)[C@H]1O[C@@H]1O[C@H](CO)[C@@H](O)[C@H](O)[C@H]1O)C(C)(C)O)[C@H]1CC[C@@]2(C)[C@@H]3CC=C4[C@@H](CC[C@H](O[C@@H]5O[C@H](CO)[C@@H](O)[C@H](O)[C@H]5O)C4(C)C)[C@]3(C)[C@H](O)C[C@]12C [siamenoside I]
Maltase [10]
  IC50: 10000 µM

## O=C(O)/C=C/c1ccc(O)c(O)c1 [caffeic acid]
Maltase [6]
  mode of inhibition of maltase: mixed-inhibition manner

## C[C@H](CC[C@@H](O[C@@H]1O[C@H](CO)[C@@H](O)[C@H](O)[C@H]1O[C@@H]1O[C@H](CO)[C@@H](O)[C@H](O)[C@H]1O)C(C)(C)O)[C@H]1CC[C@@]2(C)[C@H]3CC=C4[C@@H](CC[C@H](O[C@@H]5O[C@H](CO[C@@H]6O[C@H](CO)[C@@H](O)[C@H](O)[C@H]6O)[C@@H](O)[C@H](O)[C@H]5O)C4(C)C)[C@]3(C)[C@H](O)C[C@]12C [mogroside IV]
Maltase [10]
  IC50: 12000 µM

## C[C@H]1O[C@H](O[C@H]2[C@H](O)[C@@H](O)[C@@H](O[C@H]3[C@H](O)[C@@H](O)C(O)O[C@@H]3CO)O[C@@H]2CO)[C@H](O)[C@@H](O)[C@@H]1N[C@H]1C=C(CO)[C@@H](O)[C@H](O)[C@H]1O (stereo partly shown) [acarbose]
Rat maltase [8]
  IC50: 0.42 ± 0.02 µM
Rat sucrase
  IC50: 12.3 ± 0.6 µM
[12]
  reduction of the risk of developing type 2 diabetes: 6%

## O=c1c(O)c(-c2ccc(O)c(O)c2)oc2cc(O)cc(O)c12 [quercetin, reference compound]
Maltase [1]
  inhibition at 10 µM: 56.3%
Sucrase [2]
  IC50: 19 ± 2.53 µM
  sucrase inhibition: 51.7%
Maltase [3]; Dixon plot
  Ki’ maltase (uncompetitive inhibition constant): 14.97 ± 0.75 µM
Maltase [3]; maltose substrate
  mode of inhibition toward maltase: mixed-type inhibition; also recorded: mixed-competitive inhibitors
Sucrase [4]
  Ki: 14.05 ± 0.03 µM
  mode of inhibition toward sucrase: mixed-type inhibition; also recorded: mixed-competitive inhibitors
Rat maltase [13]
  IC50: 4800 ± 400 µM
Rat sucrose
  IC50: 3500 ± 300 µM
α-glucosidase
  mode of inhibition of α-glucosidase: mixed-competitive inhibitors

## Oc1cc(COCc2cc(O)c(O)c(Br)c2Br)c(Br)c(Br)c1O [bis (2,3-dibromo-4,5-dihydroxybenzyl)ether]
Sucrose in rats
  IC50: 1000 ± 30 µM
